Laboratory results: PMC10339703 (Clinical and Translational Science, 2023)

System: healthy subjects
Assay: Safety and tolerability
Format: in vivo, human
[1] = MAD 25 mg tablet b.i.d. 14 days
[2] = MAD 50 mg tablet b.i.d. 14 days

O[C@H]1CCCN[C@@H]1CCCn1cnc2c(Cl)c(Cl)ccc21 [Bersiporocin]
ADRs, number of events [1]: 25
Abdominal discomfort (ADR), number of events [1]: 1
Abdominal discomfort (ADR), subjects n (%) [1]: 1 (16.7)
Abdominal distension (ADR), number of events [1]: 3
Abdominal distension (ADR), subjects n (%) [1]: 2 (33.3)
Abdominal pain (ADR), number of events [1]: 5
Abdominal pain (ADR), subjects n (%) [1]: 2 (33.3)
Abdominal pain upper (ADR), subjects n (%) [1]: 0
Acne (ADR), subjects n (%) [1]: 0
Alanine aminotransferase increased (ADR), subjects n (%) [1]: 0
Altered visual depth perception (ADR), subjects n (%) [1]: 0
Balance disorder (ADR), subjects n (%) [1]: 0
Bowel movement irregularity (ADR), number of events [1]: 1
Bowel movement irregularity (ADR), subjects n (%) [1]: 1 (16.7)
Cold sweat (ADR), number of events [1]: 1
Cold sweat (ADR), subjects n (%) [1]: 1 (16.7)
Constipation (ADR), subjects n (%) [1]: 0
Decreased appetite (ADR), subjects n (%) [1]: 0
Diarrhea (ADR), number of events [1]: 3
Diarrhea (ADR), subjects n (%) [1]: 2 (33.3)
Dizziness (ADR), subjects n (%) [1]: 0
Dry mouth (ADR), subjects n (%) [1]: 0
Dysgeusia (ADR), subjects n (%) [1]: 0
Eructation (ADR), subjects n (%) [1]: 0
Esophageal pain (ADR), subjects n (%) [1]: 0
Euphoric mood (ADR), subjects n (%) [1]: 0
Feces discolored (ADR), subjects n (%) [1]: 0
Feces soft (ADR), subjects n (%) [1]: 0
Feeling hot (ADR), number of events [1]: 1
Feeling hot (ADR), subjects n (%) [1]: 1 (16.7)
Flatulence (ADR), subjects n (%) [1]: 0
Gastroesophageal reflux disease (ADR), number of events [1]: 2
Gastroesophageal reflux disease (ADR), subjects n (%) [1]: 1 (16.7)
Headache (ADR), subjects n (%) [1]: 0
Hypoesthesia (ADR), subjects n (%) [1]: 0
Impaired healing (ADR), subjects n (%) [1]: 0
Malaise (ADR), number of events [1]: 1
Malaise (ADR), subjects n (%) [1]: 1 (16.7)
Myalgia (ADR), subjects n (%) [1]: 0
Nausea (ADR), number of events [1]: 4
Nausea (ADR), subjects n (%) [1]: 1 (16.7)
Neutropenia (ADR), subjects n (%) [1]: 0
Oropharyngeal pain (ADR), subjects n (%) [1]: 0
Papule (ADR), subjects n (%) [1]: 0
Pollakiuria (ADR), subjects n (%) [1]: 0
Presyncope (ADR), subjects n (%) [1]: 0
Proctalgia (ADR), subjects n (%) [1]: 0
Salivary hypersecretion (ADR), number of events [1]: 3
Salivary hypersecretion (ADR), subjects n (%) [1]: 2 (33.3)
Skin irritation (ADR), subjects n (%) [1]: 0
Somnolence (ADR), subjects n (%) [1]: 0
Subjects with ADRs, n (%) [1]: 4 (66.7)
Transaminases increased (ADR), subjects n (%) [1]: 0
Tremor (ADR), subjects n (%) [1]: 0
Vomiting (ADR), subjects n (%) [1]: 0
ADRs, number of events [2]: 35
Abdominal discomfort (ADR), subjects n (%) [2]: 0
Abdominal distension (ADR), number of events [2]: 1
Abdominal distension (ADR), subjects n (%) [2]: 1 (16.7)
Abdominal pain (ADR), number of events [2]: 1
Abdominal pain (ADR), subjects n (%) [2]: 1 (16.7)
Abdominal pain upper (ADR), subjects n (%) [2]: 0
Acne (ADR), subjects n (%) [2]: 0
Alanine aminotransferase increased (ADR), number of events [2]: 1
Alanine aminotransferase increased (ADR), subjects n (%) [2]: 1 (16.7)
Altered visual depth perception (ADR), number of events [2]: 1
Altered visual depth perception (ADR), subjects n (%) [2]: 1 (16.7)
Balance disorder (ADR), subjects n (%) [2]: 0
Bowel movement irregularity (ADR), subjects n (%) [2]: 0
Cold sweat (ADR), subjects n (%) [2]: 0
Constipation (ADR), number of events [2]: 1
Constipation (ADR), subjects n (%) [2]: 1 (16.7)
Decreased appetite (ADR), subjects n (%) [2]: 0
Diarrhea (ADR), number of events [2]: 2
Diarrhea (ADR), subjects n (%) [2]: 2 (33.3)
Dizziness (ADR), number of events [2]: 1
Dizziness (ADR), subjects n (%) [2]: 1 (16.7)
Dry mouth (ADR), number of events [2]: 1
Dry mouth (ADR), subjects n (%) [2]: 1 (16.7)
Dysgeusia (ADR), number of events [2]: 2
Dysgeusia (ADR), subjects n (%) [2]: 2 (33.3)
Eructation (ADR), subjects n (%) [2]: 0
Esophageal pain (ADR), subjects n (%) [2]: 0
Euphoric mood (ADR), number of events [2]: 1
Euphoric mood (ADR), subjects n (%) [2]: 1 (16.7)
Feces discolored (ADR), number of events [2]: 1
Feces discolored (ADR), subjects n (%) [2]: 1 (16.7)
Feces soft (ADR), subjects n (%) [2]: 0
Feeling hot (ADR), subjects n (%) [2]: 0
Flatulence (ADR), subjects n (%) [2]: 0
Gastroesophageal reflux disease (ADR), number of events [2]: 1
Gastroesophageal reflux disease (ADR), subjects n (%) [2]: 1 (16.7)
Headache (ADR), number of events [2]: 5
Headache (ADR), subjects n (%) [2]: 3 (50.0)
Hypoesthesia (ADR), number of events [2]: 1
Hypoesthesia (ADR), subjects n (%) [2]: 1 (16.7)
Impaired healing (ADR), subjects n (%) [2]: 0
Malaise (ADR), subjects n (%) [2]: 0
Myalgia (ADR), number of events [2]: 2
Myalgia (ADR), subjects n (%) [2]: 2 (33.3)
Nausea (ADR), number of events [2]: 6
Nausea (ADR), subjects n (%) [2]: 4 (66.7)
Neutropenia (ADR), subjects n (%) [2]: 0
Oropharyngeal pain (ADR), number of events [2]: 1
Oropharyngeal pain (ADR), subjects n (%) [2]: 1 (16.7)
Papule (ADR), subjects n (%) [2]: 0
Pollakiuria (ADR), number of events [2]: 1
Pollakiuria (ADR), subjects n (%) [2]: 1 (16.7)
Presyncope (ADR), subjects n (%) [2]: 0
Proctalgia (ADR), subjects n (%) [2]: 0
Salivary hypersecretion (ADR), subjects n (%) [2]: 0
Skin irritation (ADR), subjects n (%) [2]: 0
Somnolence (ADR), subjects n (%) [2]: 0
Subjects with ADRs, n (%) [2]: 6 (100)
Transaminases increased (ADR), subjects n (%) [2]: 0
Tremor (ADR), subjects n (%) [2]: 0
Vomiting (ADR), number of events [2]: 5
Vomiting (ADR), subjects n (%) [2]: 3 (50.0)
